Patent US20260317324A1, “BIFUNCTIONAL COMPOUNDS FOR DEGRADING BRAF VIA UBIQUITIN PROTEOSOME PATHWAY” (Nurix Therapeutics, Inc., priority 2023, published 2026)

Columns and labels:
Assay type in all cases: cell-based
[1] = biological target: T1, BRAF G466V (Homo sapiens, UniProt P15056, G466V); assay: BRAF HiBiT degradation assay, C-terminal HiBiT-tagged BRAF G466V overexpressed in HCT-116 BRAF−/− cells (clone 8), Nano-Glo HiBiT Lytic assay
T1 construct: Horizon Discovery (HCT-116 BRAF−/− cells); host or cells: HCT-116 BRAF−/− cells, clone 8, lentiviral transduction
T1 sequence (P15056 whole entry G466V): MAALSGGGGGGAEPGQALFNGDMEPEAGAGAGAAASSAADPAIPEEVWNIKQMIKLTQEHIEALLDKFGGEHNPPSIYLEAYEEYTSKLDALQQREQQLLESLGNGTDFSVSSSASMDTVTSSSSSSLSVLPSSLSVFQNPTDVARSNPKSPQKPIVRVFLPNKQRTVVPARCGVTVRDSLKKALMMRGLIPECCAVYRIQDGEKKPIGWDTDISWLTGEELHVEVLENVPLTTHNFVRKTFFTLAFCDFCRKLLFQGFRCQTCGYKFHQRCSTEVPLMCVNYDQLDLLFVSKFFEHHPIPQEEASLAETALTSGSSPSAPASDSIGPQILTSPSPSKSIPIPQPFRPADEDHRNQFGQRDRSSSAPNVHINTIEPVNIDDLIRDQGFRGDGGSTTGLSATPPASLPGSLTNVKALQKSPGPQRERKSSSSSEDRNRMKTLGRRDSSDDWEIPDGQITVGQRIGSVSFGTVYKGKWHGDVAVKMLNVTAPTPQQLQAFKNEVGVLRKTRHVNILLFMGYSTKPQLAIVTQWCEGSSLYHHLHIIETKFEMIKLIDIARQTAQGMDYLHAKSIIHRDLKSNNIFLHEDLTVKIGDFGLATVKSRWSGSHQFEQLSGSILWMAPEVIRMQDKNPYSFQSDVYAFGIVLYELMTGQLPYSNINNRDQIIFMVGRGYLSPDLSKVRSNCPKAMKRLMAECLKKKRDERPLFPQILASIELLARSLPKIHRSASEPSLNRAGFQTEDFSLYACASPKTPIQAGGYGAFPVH
Summary of the method: (§1)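 We quantified degradation of the C-terminally HiBiT-tagged, overexpressed mutant by lytic luminescence, normalizing to DMSO-treated cells with wild-type HCT-116 background subtracted. Dose series ran from 1 μM to 0.01 nM at 0.2% DMSO. Observed Dmax is % degraded at maximal effect.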

[2] = biological target: T2, BRAF G469A (Homo sapiens, UniProt P15056, G469A); assay: BRAF HiBiT degradation assay, C-terminal HiBiT-tagged BRAF G469A overexpressed in HCT-116 BRAF−/− cells (clone 34), Nano-Glo HiBiT Lytic assay
T2 construct: Horizon Discovery (HCT-116 BRAF−/− cells); host or cells: HCT-116 BRAF−/− cells, clone 34, lentiviral transduction
T2 sequence (P15056 whole entry G469A): as the sequence (P15056 whole entry G466V) above, with V466G, G469A counted along it
Summary of the method: as §1

[3] = biological target: T3, BRAF V600E (Homo sapiens, UniProt P15056, V600E); assay: BRAF HiBiT degradation assay, C-terminal HiBiT-tagged BRAF V600E A375 cells (clone 1F10), Nano-Glo HiBiT Lytic assay; conditions: for Dmax: A-375
T3 construct: endogenous C-terminal HiBiT fusion tag on BRAF V600E allele; endogenous in cells; host or cells: A375 clone 1F10 (CRISPR-Cas9 knock-in of the HiBiT tag; parental A375 from ATCC)
T3 sequence (P15056 whole entry V600E, the tested form may be a part): as the sequence (P15056 whole entry G466V) above, with V466G, V600E counted along it
Summary of the method: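 Steps: seed HiBiT-tagged A375 clone 1F10 cells; incubate 24 h, 37 °C, 5% CO2; add compound (11 half-log points from 1 μM, 0.2% DMSO); lyse with HiBiT detection reagent plus LgBiT for 10 min; read luminescence; fit % protein remaining against concentration.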

[4] = biological target: T4, BRAF D594G (Homo sapiens, UniProt P15056, D594G); assay: BRAF HiBiT degradation assay, C-terminal HiBiT-tagged BRAF D594G overexpressed in HCT-116 BRAF−/− cells (clone 63), Nano-Glo HiBiT Lytic assay
T4 construct: Horizon Discovery (HCT-116 BRAF−/− cells); host or cells: HCT-116 BRAF−/− cells, clone 63, lentiviral transduction
T4 sequence (P15056 whole entry D594G): as the sequence (P15056 whole entry G466V) above, with V466G, D594G counted along it
Summary of the method: as §1

[5] = BRAF G466V, DC50 at 50%: fitted conc. at Y=50
[6] = HCT-116, BRAF G466V, percentage protein degraded at maximal compound effect relative to DMSO
[7] = Class 2, BRAF G469A, DC50 at 50%: fitted conc. at Y=50
[8] = HCT-116, Class 2, BRAF G469A, percentage protein degraded at maximal compound effect relative to DMSO
[9] = A375 (BRAF V600E), DC50 at 50%: fitted conc. at Y=50
[10] = A375 (BRAF V600E), percentage protein degraded at maximal compound effect relative to DMSO
[11] = BRAF D594G, DC50 at 50%: fitted conc. at Y=50
[12] = HCT-116, BRAF D594G, percentage protein degraded at maximal compound effect relative to DMSO
[13] = BRAF G466V (Class 3), HCT-116 BRAF−/− cells, DC50 at 50% degradation
[14] = BRAF G466V (Class 3), HCT-116 BRAF−/− cells, observed Dmax relative to DMSO control
[15] = BRAF G469A (Class 2), HCT-116 BRAF−/− cells, DC50 at 50% degradation
[16] = BRAF G469A (Class 2), HCT-116 BRAF−/− cells, observed Dmax relative to DMSO control
[17] = A375 (BRAF V600E, Class 1), DC50 at 50% degradation
[18] = A375 (BRAF V600E, Class 1), observed Dmax, % protein degraded relative to DMSO control
[19] = BRAF D594G (Class 3), HCT-116 BRAF−/− cells, DC50 at 50% degradation
[20] = BRAF D594G (Class 3), HCT-116 BRAF−/− cells, observed Dmax relative to DMSO control

SMILES	DC50 [1, 5] [nM]	Dmax [1, 6] [%]	DC50 [2, 7] [nM]	Dmax [2, 8] [%]	DC50 [3, 9] [nM]	Dmax [3, 10] [%]	DC50 [4, 11] [nM]	Dmax [4, 12] [%]	DC50 [1, 13] [nM]	Dmax [1, 14] [%]	DC50 [2, 15] [nM]	Dmax [2, 16] [%]	DC50 [3, 17] [nM]	Dmax [3, 18] [%]	DC50 [4, 19] [nM]	Dmax [4, 20] [%]
CCN(C)S(=O)(=O)Nc1cccc(-c2nc(C(C)(C)C)sc2-c2ccnc(Nc3ccc(N4CCN(CC5CC6(C5)CN(c5ccc(C7CCC(=O)NC7=O)cn5)C6)CC4)cn3)n2)c1F (racemic) [Compound 30, Rac-(3R)-3-{6-[6-({4-[6-({4-[2-tert-butyl-4-(3-{[ethyl(methyl)sulfamoyl]amino}-2-fluorophenyl)-1,3-thiazol-5-yl]pyrimidin-2-yl}amino)pyridin-3-yl]piperazin-1-yl}methyl)-2-azaspiro[3.3]heptan-2-yl]pyridin-3-yl}piperidine-2,6-dione]	10 to 50	30 to 70	10 to 50	30 to 70	< 10	> 70	< 10	30 to 70								
O=C1CCC(c2ccc(N3CCC(CN4CCN(c5ccc(-n6cc(-c7cc(Cl)cc(NS(=O)(=O)N8CCCC8)c7F)c(-c7ccncc7)n6)cc5)CC4)CC3)nc2)C(=O)N1 (racemic) [Compound 265, Rac-(R)—N-(5-chloro-3-(1-(4-(4-((1-(5-(2,6-dioxopiperidin-3-yl)pyridin-2-yl)piperidin-4-yl)methyl)piperazin-1-yl)phenyl)-3-(pyridin-4-yl)-1H-pyrazol-4-yl)-2-fluorophenyl)pyrrolidine-1-sulfonamide]									< 10	> 70	< 10	> 70	< 10	> 70	< 10	> 70
CCCS(=O)(=O)Nc1cccc(-c2nc(C3CCC4(CC3)CCN(C(=O)C3CCN(c5cccc6c5n(C)c(=O)n6C5CCC(=O)NC5=O)CC3)CC4)sc2-c2ccnc(N)n2)c1F (racemic) [Compound 251, Rac-N-{3-[5-(2-aminopyrimidin-4-yl)-2-[3-(1-{1-[(3R)-2,6-dioxopiperidin-3-yl]-3-methyl-2-oxo-2,3-dihydro-1H-1,3-benzodiazol-4-yl}piperidine-4-carbonyl)-3-azaspiro[5.5]undecan-9-yl]-1,3-thiazol-4-yl]-2-fluorophenyl}propane-1-sulfonamide]									< 10	30 to 70	> 500	30 to 70	< 10	> 70	< 10	30 to 70

Now from value to molecule:

DC50 [1, 5] [nM]	Dmax [1, 6] [%]	DC50 [2, 7] [nM]	Dmax [2, 8] [%]	DC50 [3, 9] [nM]	Dmax [3, 10] [%]	DC50 [4, 11] [nM]	Dmax [4, 12] [%]	DC50 [1, 13] [nM]	Dmax [1, 14] [%]	DC50 [2, 15] [nM]	Dmax [2, 16] [%]	DC50 [3, 17] [nM]	Dmax [3, 18] [%]	DC50 [4, 19] [nM]	Dmax [4, 20] [%]	SMILES
> 500	30 to 70	> 500	< 30	< 10	> 70	> 500	30 to 70									CCCS(=O)(=O)Nc1cccc(-c2nc(C3CCN(C(=O)C4(C)CCN(C(=O)CC5CCN(c6ccc(C7CCC(=O)NC7=O)cn6)CC5)CC4)CC3)sc2-c2ccnc(N)n2)c1F (racemic) [Compound 194, Rac-N-{3-[5-(2-aminopyrimidin-4-yl)-2-(1-{1-[2-(1-{5-[(3R)-2,6-dioxopiperidin-3-yl]pyridin-2-yl}piperidin-4-yl)acetyl]-4-methylpiperidine-4-carbonyl}piperidin-4-yl)-1,3-thiazol-4-yl]-2-fluorophenyl}propane-1-sulfonamide]
> 500	< 30	> 500	< 30	10 to 50	> 70	> 500	< 30									CCCS(=O)(=O)Nc1cccc(-c2nc(C3CCN(C4CN(C(=O)CC5CCN(c6ccc(C7CCC(=O)NC7=O)cc6)CC5)C4)CC3)sc2-c2ccnc(N)n2)c1F (racemic) [Compound 215, Rac-N-{3-[5-(2-aminopyrimidin-4-yl)-2-(1-{1-[2-(1-{4-[(3R)-2,6-dioxopiperidin-3-yl]phenyl}piperidin-4-yl)acetyl]azetidin-3-yl}piperidin-4-yl)-1,3-thiazol-4-yl]-2-fluorophenyl}propane-1-sulfonamide]
